system: HCV pseudoparticles, genotype 1a (H77C) E1 and E2 envelope glycoproteins; test: HCV pseudoparticle infection assay (luciferase reporter, Huh7 cells); assay type: cell-based; conditions: Hepatitis C virus, Huh-7, 48 h, read-out: EC50 (nM) 1a (H77C), HCV pseudoparticles genotype 1a (H77C), Huh7 cells, luciferase 2 days after infection; class symbol

With NC(=O)C(=O)N1CCC2(CCN(C(=O)c3ccc(Nc4nc(NC5(c6ccc(Cl)cc6)CC5)nc(OCC(F)(F)F)n4)cc3)C2)C1 (stereo not drawn) [Compound 1001] as the compound, how does the EC50 read?
Its EC50 is 0.01 to 10 nM.

How did the EC50 turn out when O=C(Nc1cccc(F)c1)C(=O)N1CCC2(CCN(C(=O)c3ccc(Nc4nc(NC5(c6ccc(Cl)cc6)CC5)nc(OCC(F)(F)F)n4)cc3)C2)C1 (stereo not drawn) [Compound 1002] was run?
Its EC50 is 0.01 to 10 nM.

How did the EC50 turn out when O=C(Nc1ccc(F)cc1)C(=O)N1CCC2(CCN(C(=O)c3ccc(Nc4nc(NC5(c6ccc(Cl)cc6)CC5)nc(OCC(F)(F)F)n4)cc3)C2)C1 (stereo not drawn) [Compound 1003] was run?
The EC50 was 0.01 to 10 nM.

How did the EC50 turn out when Cc1cc(NC(=O)C(=O)N2CCC3(CCN(C(=O)c4ccc(Nc5nc(NC6(c7ccc(Cl)cc7)CC6)nc(OCC(F)(F)F)n5)cc4)C3)C2)no1 (stereo not drawn) [Compound 1004] was run?
The EC50 was 0.01 to 10 nM.

How did the EC50 turn out when O=C(Nc1ccccc1)C(=O)N1CCC2(CCN(C(=O)c3ccc(Nc4nc(NC5(c6ccc(Cl)cc6)CC5)nc(OCC(F)(F)F)n4)cc3)C2)C1 (stereo not drawn) [Compound 1005] was run?
Its EC50 is 0.01 to 10 nM.

For O=C(NCc1ccc(F)cc1)C(=O)N1CCC2(CCN(C(=O)c3ccc(Nc4nc(NC5(c6ccc(Cl)cc6)CC5)nc(OCC(F)(F)F)n4)cc3)C2)C1 (stereo not drawn) [Compound 1006], which EC50 is on record?
Its EC50 is 0.01 to 10 nM.

Cc1ccc(NC(=O)C(=O)N2CCC3(CCN(C(=O)c4ccc(Nc5nc(NC6(c7ccc(Cl)cc7)CC6)nc(OCC(F)(F)F)n5)cc4)C3)C2)cc1 (stereo not drawn) [Compound 1007] was tested. Which EC50 did it give?
Its EC50 is 0.01 to 10 nM.

Which EC50 does the source give for O=C(Nc1ccc(F)cc1F)C(=O)N1CCC2(CCN(C(=O)c3ccc(Nc4nc(NC5(c6ccc(Cl)cc6)CC5)nc(OCC(F)(F)F)n4)cc3)C2)C1 (stereo not drawn) [Compound 1008] here?
Its EC50 is 0.01 to 10 nM.

O=C(Nc1cc(F)cc(F)c1)C(=O)N1CCC2(CCN(C(=O)c3ccc(Nc4nc(NC5(c6ccc(Cl)cc6)CC5)nc(OCC(F)(F)F)n4)cc3)C2)C1 (stereo not drawn) [Compound 1009] was tested. Which EC50 did it give?
Its EC50 is 0.01 to 10 nM.

For O=C(NC1CCCCC1)C(=O)N1CCC2(CCN(C(=O)c3ccc(Nc4nc(NC5(c6ccc(Cl)cc6)CC5)nc(OCC(F)(F)F)n4)cc3)C2)C1 (stereo not drawn) [Compound 1010], which EC50 is on record?
Its EC50 is 0.01 to 10 nM.

With O=C(C(=O)N1CCC2(CCN(C(=O)c3ccc(Nc4nc(NC5(c6ccc(Cl)cc6)CC5)nc(OCC(F)(F)F)n4)cc3)C2)C1)N1CCCCC1 (stereo not drawn) [Compound 1011] as the compound, how does the EC50 read?
The EC50 was 0.01 to 10 nM.

With O=C(Nc1nccs1)C(=O)N1CCC2(CCN(C(=O)c3ccc(Nc4nc(NC5(c6ccc(Cl)cc6)CC5)nc(OCC(F)(F)F)n4)cc3)C2)C1 (stereo not drawn) [Compound 1012] as the compound, how does the EC50 read?
Its EC50 is 0.01 to 10 nM.

How did the EC50 turn out when O=C(C(=O)N1CCC2(CCN(C(=O)c3ccc(Nc4nc(NC5(c6ccc(Cl)cc6)CC5)nc(OCC(F)(F)F)n4)cc3)C2)C1)N1CCc2ccccc2C1 (stereo not drawn) [Compound 1013] was run?
Its EC50 is 0.01 to 10 nM.

CC(C)CNC(=O)C(=O)N1CCC2(CCN(C(=O)c3ccc(Nc4nc(NC5(c6ccc(Cl)cc6)CC5)nc(OCC(F)(F)F)n4)cc3)C2)C1 (stereo not drawn) [Compound 1014] was tested. Which EC50 did it give?
The EC50 was 0.01 to 10 nM.

For Cc1nnc(NC(=O)C(=O)N2CCC3(CCN(C(=O)c4ccc(Nc5nc(NC6(c7ccc(Cl)cc7)CC6)nc(OCC(F)(F)F)n5)cc4)C3)C2)s1 (stereo not drawn) [Compound 1015], which EC50 is on record?
The EC50 was 0.01 to 10 nM.

same assay, conditions: Hepatitis C virus, Huh-7, 48 h, read-out: EC50 (nM) 1a (H77C), HCV pseudoparticles genotype 1a (H77C), Huh7 cells, luciferase 2 days after infection; numeric value

NC(=O)C(=O)N1CCC2(CCN(C(=O)c3ccc(Nc4nc(NC5(c6ccc(Cl)cc6)CC5)nc(OCC(F)(F)F)n4)cc3)C2)C1 (stereo not drawn) [Compound 1001] was tested. Which EC50 did it give?
Its EC50 is 1.64 nM.

How did the EC50 turn out when Cc1ccc(NC(=O)C(=O)N2CCC3(CCN(C(=O)c4ccc(Nc5nc(NC6(c7ccc(Cl)cc7)CC6)nc(OCC(F)(F)F)n5)cc4)C3)C2)cc1 (stereo not drawn) [Compound 1007] was run?
Its EC50 is 0.255 nM.

For O=C(C(=O)N1CCC2(CCN(C(=O)c3ccc(Nc4nc(NC5(c6ccc(Cl)cc6)CC5)nc(OCC(F)(F)F)n4)cc3)C2)C1)N1CCc2ccccc2C1 (stereo not drawn) [Compound 1013], which EC50 is on record?
The EC50 was 4.86 nM.

From patent publication US8987264B2, “1,3,5-triazine derivatives of spiro bicyclic oxalamide-compounds for treatment of hepatitis C” (priority 2012, dated 2015)
